Measured values published in patent US6890940B2, “Bis(2-aryl-5-pyridyl) derivatives” (Kowa Co., Ltd., priority 2001, dated 2005).
Where a name gives a salt, the structure may show the parent alone. Read-outs that look alike come from different tables or passages of the source. Marks after values point to notes of the source that are not given here.

Columns and labels:
[1] = Solubility of each compound in water; format: physicochemical
From the text: Further, the solubility (%) of each compound in water was also estimated.

IgE antibody production = assay: Evaluation of IgE antibody production inhibiting activity (mouse spleen B cells stimulated with LPS and IL-4, IgE in supernatant by ELISA); format: cell-based; conditions: B-cell; mouse (Balb/C) spleen B cells, LPS + mouse IL-4, drug added Day 1, IgE in culture supernatant by ELISA
Protocol: Test 1 (Evaluation of IgE Antibody Production Inhibiting Activity)
From a mouse (Balb/C, male, 8 weeks old), the spleen was enucleated. The spleen was shredded in 10% FBS/RPMI 1640, and was then disintegrated into single cells through a 70-mesh screen. Those single cells were hemolyzed with Gey's solution, and using RPMI 1640 medium/25 mM HEPES/0.3% BSA, a spleen cell suspension (1×10^7 cells/mL) was prepared. After an aliquot of the suspension was reacted with a rat anti-mouse Thy-1.2 monoclonal antibody (product of Cedarlane Laboratories Limited) at 4° C. for 1 hour, centrifugation was conducted. Precipitated cells were suspended again (1×10^7 cells/mL, RPMI/HEPES/BSA). After the suspension was next reacted with a low-cytotoxic rabbit complement (product of Cedarlane Laboratories Limited) at 37° C. for 1 hour, dead cells were removed by specific gravity centrifugation using Lympholyte M (product of Cedarlane Laboratories Limited) so that a B cell fraction was obtained as viable cells. […]
The IgE antibody production inhibiting activity of each drug was calculated by adding the drug Day 1 of the incubation and assaying the quantity of IgE in the culture supernatant by ELISA after the incubation.

[2] = Solubility of each compound in water; format: physicochemical; conditions: in 1M hydrochloric acid (footnote *)

| Compound | Solubility [1] | IC50 (IgE antibody production) | Solubility [2] |
| --- | --- | --- | --- |
| COc1cc(-c2ccc(N(C)CCN(C)c3ccc(-c4cc(OC)c(OC)c(OC)c4)nc3)cn2)cc(OC)c1OC [Example 7, N,N′-Bis[2-(3,4,5-trimethoxyphenyl)-5-pyridyl]-N,N′-dimethylethylenediamine dimethanesulfonate] | 5% | 40 nM | – |
| COc1cc(-c2ccc(N(C)CCN(C)c3ccc(-c4cc(OC)c(O)c(OC)c4)nc3)cn2)cc(OC)c1O [Example 14, N,N′-Bis[2-(4-hydroxy-3,5-dimethoxyphenyl)-5-pyridyl]-N,N′-dimethylethylenediamine dimethanesulfonate] | 0.1% | 40 nM | – |
| COc1cc(-c2ccc(N3CCCN(c4ccc(-c5cc(OC)c(OC)c(OC)c5)nc4)CC3)cn2)cc(OC)c1OC [Example 30, 1,4-Bis[2-(3,4,5-trimethoxyphenyl)-5-pyridyl]hexahydro-1,4-diazepine dimethanesulfonate] | 0.1% | 100 nM | – |
| CCN(CCN(CC)c1ccc(-c2cc(OC)c(OC)c(OC)c2)nc1)c1ccc(-c2cc(OC)c(OC)c(OC)c2)nc1 [Example 36, N,N′-Bis[2-(3,4,5-trimethoxyphenyl)-5-pyridyl]-N,N′-diethylethylenediamine dimethanesulfonate] | 10% | 30 nM | – |
| COc1cc(-c2ccc(N(C)CCCN(C)c3ccc(-c4cc(OC)c(OC)c(OC)c4)nc3)cn2)cc(OC)c1OC [Example 37, N,N′-Bis[2-(3,4,5-trimethoxyphenyl)-5-pyridyl]-N,N′-dimethyl-1,3-propanediamine dimethanesulfonate] | 10% | 100 nM | – |
| COc1cc(-c2ccc(N(C)CC(C)(C)CN(C)c3ccc(-c4cc(OC)c(OC)c(OC)c4)nc3)cn2)cc(OC)c1OC [Example 39, N,N′-Bis[2-(3,4,5-trimethoxyphenyl)-5-pyridyl]-N,N′,2,2-tetramethyl-1,3-propanediamine dimethanesulfonate] | 10% | 80 nM | – |
| COc1cc(-c2ccc(N(C)CC(O)CN(C)c3ccc(-c4cc(OC)c(OC)c(OC)c4)nc3)cn2)cc(OC)c1OC [Example 41, 2-hydroxy-N,N′-bis[2-(3,4,5-trimethoxyphenyl)-5-pyridyl]-N,N′-dimethyl-1,3-propanediamine] | – | 50 nM | 0.1* % |
| COc1cc(-c2ccc(N(C)CCN(C)CCN(C)c3ccc(-c4cc(OC)c(OC)c(OC)c4)nc3)cn2)cc(OC)c1OC [Example 42, N,N-Bis[N-[2-(3,4,5-trimethoxyphenyl)-5-pyridyl]-N-methyl-2-aminoethyl]methylamine trihydrochloride.] | 10% | 100 nM | – |
| COc1cc(-c2ccc(N(C)CCCN(C)CCCN(C)c3ccc(-c4cc(OC)c(OC)c(OC)c4)nc3)cn2)cc(OC)c1OC [Example 43, N,N-Bis[N-[2-(3,4,5-trimethoxyphenyl)-5-pyridyl]-N-methyl-3-aminopropyl]methylamine] | – | 100 nM | 10* % |
| COc1cc(-c2ccc(NCCOCCNc3ccc(-c4cc(OC)c(OC)c(OC)c4)nc3)cn2)cc(OC)c1OC [Example 44, Bis[N-[2-(3,4,5-trimethoxyphenyl)-5-pyridyl]-2-aminoethyl]ether dimethanesulfonate] | 10% | 100 nM | – |
| COc1cc(-c2ccc(N3CCN(c4ccc(-c5cc(OC)c(OC)c(OC)c5)nc4)C(CN(C)C)C3)cn2)cc(OC)c1OC (stereo not drawn) [Example 47, 2-(Dimethylamino)methyl-1,4-bis[2-(,3,4,5-trimethoxyphenyl)-5-pyridyl]piperazine trihydrochloride] | 0.1% | 50 nM | – |
| COc1cc(-c2ccc(N(C)CCCN(C)CCCN(C)c3ccc(-c4cc(OC)c(OCC(F)(F)F)c(OC)c4)nc3)cn2)cc(OC)c1OCC(F)(F)F [Example 57, N,N-Bis[N-[2-(3,5-dimethoxy-4-(2,2,2-trifluoroethoxy)phenyl]-5-pyridyl]-N-methyl-3-aminopropyl]methylamine trihydrochloride] | 1% | 100 nM | – |
